Laboratory results: publication PMC5522071, “Preclinical development of G1T38: A novel, potent and selective inhibitor of cyclin dependent kinases 4/6 for use as an oral antineoplastic in patients with CDK4/6 sensitive tumors” (Oncotarget, 2017)

What was measured:
[1] = system: myeloid progenitors (Mac1+ Gr1+); test: EdU incorporation in bone marrow; conditions: any treatment cohort (10, 50, 100 mg/kg), 7 days, 12 hours post-treatment
in vivo [2] = conditions: po, 100 mg/kg
Procedure: To evaluate the murine PK/PD relationship of G1T38, an ER^+ MCF7 xenograft model was utilized. Compound concentrations were measured in plasma and tumors from tumor-bearing mice given a single oral dose of G1T38 (100 mg/kg). […] To assess the effects of G1T38 on pRB, tumors were harvested and pRB was analyzed by immunoblotting.

in vivo [3] = conditions: C57BL/6, mouse, po
[4] = 28-day repeat-dose GLP toxicity study; assay type: in vivo; conditions: rat
[5] = system: pRB in MCF7 xenograft tumors; test: Inhibition of Rb phosphorylation in MCF-7 tumors; assay type: in vivo, mice; conditions: single oral dose 100 mg/kg
CDK6/Cyclin D3 = molecular target: T1, CDK6/Cyclin D3 (Homo sapiens, UniProt Q00534); assay type: biochemical; conditions: 12-point dose response, singlicate, at Km for ATP
T1 construct: purchased Nanosyn, Inc. (contract assay)

CDK2/Cyclin A = CDK2/Cyclin A (Homo sapiens, UniProt P24941); conditions: read-out: IC50 CDK2/Cyclin A, Mean; 12-point dose response, singlicate, at Km for ATP
Procedure: (§5) The assays were completed using microfluidic kinase detection technology (Caliper Assay Platform). The compounds were tested in 12-point dose response format in singlicate at the Km for ATP. Phosphoacceptor substrate peptide concentration used was 1 μM and Staurosporine was used as the reference compound for all assays.

CDK7/Cyclin H/ Mat1 = molecular target: T2, CDK7/Cyclin H/ Mat1 (Homo sapiens, UniProt P50613); assay type: biochemical; conditions: 12-point dose response, singlicate, at Km for ATP
T2 construct: purchased Nanosyn, Inc. (contract assay)
T2 sequence (P50613 whole entry): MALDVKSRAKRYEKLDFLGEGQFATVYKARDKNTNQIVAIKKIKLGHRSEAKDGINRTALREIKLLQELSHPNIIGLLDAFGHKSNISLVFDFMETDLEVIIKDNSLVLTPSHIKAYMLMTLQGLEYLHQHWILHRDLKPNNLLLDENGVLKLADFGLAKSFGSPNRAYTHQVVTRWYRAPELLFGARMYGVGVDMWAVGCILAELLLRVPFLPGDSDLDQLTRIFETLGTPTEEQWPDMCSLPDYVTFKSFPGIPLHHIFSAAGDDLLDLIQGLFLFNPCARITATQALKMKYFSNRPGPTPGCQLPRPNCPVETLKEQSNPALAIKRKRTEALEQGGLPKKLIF
T2 sequence (P51946 whole entry partner): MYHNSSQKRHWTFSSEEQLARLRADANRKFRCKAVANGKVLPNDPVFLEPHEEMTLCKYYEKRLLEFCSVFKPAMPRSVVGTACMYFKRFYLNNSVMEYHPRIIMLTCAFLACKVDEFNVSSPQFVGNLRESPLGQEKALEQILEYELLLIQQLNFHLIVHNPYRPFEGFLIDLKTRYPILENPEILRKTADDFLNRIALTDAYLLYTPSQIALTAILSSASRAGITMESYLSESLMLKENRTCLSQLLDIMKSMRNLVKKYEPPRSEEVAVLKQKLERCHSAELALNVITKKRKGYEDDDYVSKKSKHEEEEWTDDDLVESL
T2 sequence (P51948 whole entry partner): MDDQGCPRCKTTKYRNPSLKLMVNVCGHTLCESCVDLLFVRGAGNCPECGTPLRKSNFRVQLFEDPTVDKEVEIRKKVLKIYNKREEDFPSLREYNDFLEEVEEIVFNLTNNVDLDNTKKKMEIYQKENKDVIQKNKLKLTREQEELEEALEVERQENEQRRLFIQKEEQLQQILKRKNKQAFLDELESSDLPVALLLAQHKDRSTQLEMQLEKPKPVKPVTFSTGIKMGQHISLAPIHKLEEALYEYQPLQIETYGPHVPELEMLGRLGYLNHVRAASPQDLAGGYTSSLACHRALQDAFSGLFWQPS

CDK2/Cyclin E = CDK2/Cyclin E (Homo sapiens, UniProt P24941); conditions: read-out: IC50 CDK2/Cyclin E, Mean; 12-point dose response, singlicate, at Km for ATP
Procedure: as §5

PRKD3 = molecular target: T3, PRKD3 (Homo sapiens, UniProt O94806); test: KdELECT Kd determination (DiscoveRx); assay type: binding; conditions: duplicate 11-point dose-response curves
T3 construct: purchased DiscoveRx (KdELECT service)
Procedure: (§1) G1T38 was profiled at DiscoveRx (Fremont, CA) using their KINOMEscan and scanMAX screening technology.
(§2) Supplementary Table 1: G1T38 Kinase Interactions
(§3) primary screen. Inhibitor binding constants (Kd values) were calculated from duplicate 11-point dose-response curves for
(§4) (1 picture or pasted object on this page, not shown here)

TTK = molecular target: T4, TTK (Homo sapiens, UniProt P33981); test: KdELECT Kd determination (DiscoveRx); assay type: binding; conditions: duplicate 11-point dose-response curves
T4 construct: purchased DiscoveRx (KdELECT service)
T4 sequence (P33981 whole entry): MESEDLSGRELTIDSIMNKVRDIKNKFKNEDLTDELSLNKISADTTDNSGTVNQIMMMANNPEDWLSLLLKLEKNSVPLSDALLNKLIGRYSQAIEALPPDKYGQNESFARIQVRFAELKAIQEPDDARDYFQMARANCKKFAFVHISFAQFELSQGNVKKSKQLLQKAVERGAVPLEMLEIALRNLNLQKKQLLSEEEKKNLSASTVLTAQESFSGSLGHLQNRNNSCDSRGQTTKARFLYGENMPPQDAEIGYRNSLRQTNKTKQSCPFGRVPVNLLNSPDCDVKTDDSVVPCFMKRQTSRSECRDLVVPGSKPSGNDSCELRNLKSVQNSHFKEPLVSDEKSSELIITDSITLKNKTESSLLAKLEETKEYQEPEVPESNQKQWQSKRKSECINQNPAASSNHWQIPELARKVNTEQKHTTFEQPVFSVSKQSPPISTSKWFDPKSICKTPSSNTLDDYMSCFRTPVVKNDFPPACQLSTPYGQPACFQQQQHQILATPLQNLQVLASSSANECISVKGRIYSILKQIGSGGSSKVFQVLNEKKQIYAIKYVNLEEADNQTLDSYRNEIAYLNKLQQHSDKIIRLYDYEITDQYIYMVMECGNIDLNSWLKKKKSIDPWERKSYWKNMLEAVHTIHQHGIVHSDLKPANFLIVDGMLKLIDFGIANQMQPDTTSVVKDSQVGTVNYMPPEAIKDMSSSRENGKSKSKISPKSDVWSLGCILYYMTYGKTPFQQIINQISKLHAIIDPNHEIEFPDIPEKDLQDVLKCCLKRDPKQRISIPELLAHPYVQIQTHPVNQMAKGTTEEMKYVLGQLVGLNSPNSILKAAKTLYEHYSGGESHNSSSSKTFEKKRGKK
Procedure: as §1, §2, §3, §4

PRKD2 = molecular target: T5, PRKD2 (Homo sapiens, UniProt Q9BZL6); test: KdELECT Kd determination (DiscoveRx); assay type: binding; conditions: duplicate 11-point dose-response curves
T5 construct: purchased DiscoveRx (KdELECT service)
Procedure: as §1, §2, §3, §4

NEK10 = molecular target: T6, NEK10 (Homo sapiens, UniProt Q6ZWH5); test: KdELECT Kd determination (DiscoveRx); assay type: binding; conditions: duplicate 11-point dose-response curves
T6 construct: purchased DiscoveRx (KdELECT service)
T6 sequence (Q6ZWH5 whole entry): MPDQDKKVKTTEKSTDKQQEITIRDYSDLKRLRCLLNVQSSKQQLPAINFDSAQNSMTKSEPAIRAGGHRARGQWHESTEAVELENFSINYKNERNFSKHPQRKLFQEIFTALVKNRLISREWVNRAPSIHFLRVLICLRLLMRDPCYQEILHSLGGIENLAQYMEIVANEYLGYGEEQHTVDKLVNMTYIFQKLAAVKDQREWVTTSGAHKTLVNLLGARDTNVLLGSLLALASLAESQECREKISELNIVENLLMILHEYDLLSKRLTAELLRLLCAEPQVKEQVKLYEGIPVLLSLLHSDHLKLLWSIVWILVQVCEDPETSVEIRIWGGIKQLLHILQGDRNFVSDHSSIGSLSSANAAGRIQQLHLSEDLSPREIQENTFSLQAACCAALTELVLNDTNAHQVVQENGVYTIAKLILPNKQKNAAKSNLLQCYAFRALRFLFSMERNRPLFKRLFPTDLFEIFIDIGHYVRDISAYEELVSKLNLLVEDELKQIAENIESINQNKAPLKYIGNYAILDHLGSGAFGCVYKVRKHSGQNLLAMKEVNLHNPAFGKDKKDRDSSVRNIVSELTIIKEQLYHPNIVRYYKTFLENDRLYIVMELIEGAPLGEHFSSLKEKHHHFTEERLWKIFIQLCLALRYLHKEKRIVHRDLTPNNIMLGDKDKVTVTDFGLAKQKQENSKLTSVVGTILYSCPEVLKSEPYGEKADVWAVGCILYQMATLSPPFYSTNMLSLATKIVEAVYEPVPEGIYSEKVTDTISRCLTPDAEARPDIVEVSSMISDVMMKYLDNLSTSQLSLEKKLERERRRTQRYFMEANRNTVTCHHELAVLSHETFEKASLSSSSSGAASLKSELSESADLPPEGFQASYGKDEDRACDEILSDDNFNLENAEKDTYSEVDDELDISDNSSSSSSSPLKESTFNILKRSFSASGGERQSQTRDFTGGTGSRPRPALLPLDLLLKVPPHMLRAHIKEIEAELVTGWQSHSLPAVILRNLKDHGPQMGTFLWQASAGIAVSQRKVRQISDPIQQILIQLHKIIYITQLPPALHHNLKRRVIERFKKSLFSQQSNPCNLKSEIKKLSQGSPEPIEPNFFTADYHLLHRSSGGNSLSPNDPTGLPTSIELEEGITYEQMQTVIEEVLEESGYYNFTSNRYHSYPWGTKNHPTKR
Procedure: as §1, §2, §3, §4

SNARK = molecular target: T7, SNARK (Homo sapiens, UniProt Q9H093); test: KdELECT Kd determination (DiscoveRx); assay type: binding; conditions: duplicate 11-point dose-response curves
T7 construct: purchased DiscoveRx (KdELECT service)
Procedure: as §1, §2, §3, §4

SLK = molecular target: T8, SLK (Homo sapiens, UniProt Q9H2G2); test: KdELECT Kd determination (DiscoveRx); assay type: binding; conditions: duplicate 11-point dose-response curves
T8 construct: purchased DiscoveRx (KdELECT service)
Procedure: as §1, §2, §3, §4

FLT3 (D835V) = molecular target: T9, FLT3 (D835V) (Homo sapiens, UniProt P36888, D835V); test: KdELECT Kd determination (DiscoveRx); assay type: binding; conditions: duplicate 11-point dose-response curves
T9 construct: purchased DiscoveRx (KdELECT service)
Procedure: as §1, §2, §3, §4

CDK4/ CyclinD1 = molecular target: T10, CDK4/ CyclinD1 (Homo sapiens, UniProt P11802); test: KdELECT Kd determination (DiscoveRx); assay type: binding; conditions: duplicate 11-point dose-response curves
T10 construct: purchased DiscoveRx (KdELECT service)
Procedure: as §1, §2, §3, §4

ULK2 = molecular target: T11, ULK2 (Homo sapiens, UniProt Q8IYT8); test: KdELECT Kd determination (DiscoveRx); assay type: binding; conditions: duplicate 11-point dose-response curves
T11 construct: purchased DiscoveRx (KdELECT service)
T11 sequence (Q8IYT8 whole entry): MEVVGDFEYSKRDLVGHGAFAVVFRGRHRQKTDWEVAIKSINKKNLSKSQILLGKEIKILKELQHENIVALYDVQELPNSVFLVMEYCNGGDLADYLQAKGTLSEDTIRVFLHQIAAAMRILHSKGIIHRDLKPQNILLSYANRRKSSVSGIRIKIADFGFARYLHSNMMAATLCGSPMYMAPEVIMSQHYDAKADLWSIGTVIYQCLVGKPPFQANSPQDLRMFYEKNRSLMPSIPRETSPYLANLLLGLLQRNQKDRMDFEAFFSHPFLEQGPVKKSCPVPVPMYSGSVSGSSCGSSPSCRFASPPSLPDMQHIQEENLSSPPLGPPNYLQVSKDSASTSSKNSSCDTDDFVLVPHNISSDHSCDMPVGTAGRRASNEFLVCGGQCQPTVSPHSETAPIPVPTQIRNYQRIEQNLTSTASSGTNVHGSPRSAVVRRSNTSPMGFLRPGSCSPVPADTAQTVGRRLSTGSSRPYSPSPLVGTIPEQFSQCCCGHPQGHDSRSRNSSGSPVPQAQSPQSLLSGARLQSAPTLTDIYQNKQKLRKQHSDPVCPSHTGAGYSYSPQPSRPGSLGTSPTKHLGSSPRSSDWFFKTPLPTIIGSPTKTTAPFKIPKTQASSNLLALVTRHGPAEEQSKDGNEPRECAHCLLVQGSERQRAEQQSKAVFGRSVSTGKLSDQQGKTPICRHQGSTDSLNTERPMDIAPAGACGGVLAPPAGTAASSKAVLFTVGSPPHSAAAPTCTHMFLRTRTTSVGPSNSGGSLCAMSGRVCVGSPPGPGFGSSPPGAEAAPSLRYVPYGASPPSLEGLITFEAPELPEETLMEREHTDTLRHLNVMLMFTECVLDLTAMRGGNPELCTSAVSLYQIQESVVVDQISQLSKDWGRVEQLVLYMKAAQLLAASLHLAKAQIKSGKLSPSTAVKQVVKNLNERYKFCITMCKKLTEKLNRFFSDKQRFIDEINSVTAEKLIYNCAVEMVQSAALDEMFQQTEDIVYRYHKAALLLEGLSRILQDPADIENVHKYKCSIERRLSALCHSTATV
Procedure: as §1, §2, §3, §4

CDK4/ CyclinD3 = molecular target: T12, CDK4/ CyclinD3 (Homo sapiens, UniProt P11802); test: KdELECT Kd determination (DiscoveRx); assay type: binding; conditions: duplicate 11-point dose-response curves
T12 construct: purchased DiscoveRx (KdELECT service)
Procedure: as §1, §2, §3, §4

[6] = Accumulation potential in plasma, 28-day repeat dose; assay type: in vivo, beagle dogs; conditions: Dog, 28-day daily oral treatment
Procedure: Beagle dogs (5/ sex) were dosed once daily for 28 consecutive days via oral gavage. The dose levels were 1, 2.5 and 5 mg/kg/day and administered at a dose volume of 5 mL/kg. Hematology samples (1ml/ time point) were collected in K3EDTA tubes twice pre-test and then on days 7, 14, 21, and 25 during the dosing period and on days 35, and 42 during the recovery period. Complete blood counts were performed and results reported. All studies were conducted utilizing methods and protocols in accordance with IACUC approval at MPI Research (Mattawan, MI).
28-day daily oral treatment
The accumulation ratio (R) was calculated for each animal

[7] = Cellular potency compared with palbociclib; assay type: cell-based
ER+ MCF7 xenograft = test: MCF-7 breast cancer xenograft model; assay type: in vivo, mice; conditions: for tumor growth inhibition (TGI): after 27 days of treatment
Procedure: Tumors were measured every 3 to 4 days during treatment for up to 20 days post-treatment. […] South Texas Accelerated Research Therapeutics (START; San Antonio, Texas) evaluated the antitumor activity of G1T38 in a START Cell-Based Xenograft (START-CBX) tumor model, MCF-7, representing human breast cancer. Data collected from this efficacy study included animal weights, observations, and tumor dimensions. This information was used to determine agent tolerability based on weight change and gross physiologic changes, and anticancer activity based on tumor growth inhibition or regression. Study endpoint was Day 60. MCF-7 cells were harvested from culture and injected into immune-deficient mice and the study initiated at a mean tumor volume of approximately 150-250 mm^3. […] Tumor growth inhibition (%TGI) was calculated using the following equation: %TGI=(1-(((TVtmtfinal-TVtmtinitial))/((AVERAGE(TVctlfinal))-(AVERAGE(TVctlinital)))))*100.

CDK1/Cyclin B1 = molecular target: T13, CDK1/Cyclin B1 (Homo sapiens, UniProt P06493); assay type: biochemical; conditions: 12-point dose response, singlicate, at Km for ATP
T13 construct: purchased Nanosyn, Inc. (contract assay)
T13 sequence (P06493 whole entry): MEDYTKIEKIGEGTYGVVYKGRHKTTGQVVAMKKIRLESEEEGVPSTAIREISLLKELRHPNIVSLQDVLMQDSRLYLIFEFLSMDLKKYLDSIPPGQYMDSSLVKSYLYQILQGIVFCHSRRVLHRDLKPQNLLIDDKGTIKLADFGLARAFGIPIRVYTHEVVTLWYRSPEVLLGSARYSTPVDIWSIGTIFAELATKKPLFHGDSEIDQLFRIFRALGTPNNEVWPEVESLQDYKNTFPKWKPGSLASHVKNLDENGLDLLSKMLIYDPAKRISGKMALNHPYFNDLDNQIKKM
T13 sequence (P14635 whole entry partner): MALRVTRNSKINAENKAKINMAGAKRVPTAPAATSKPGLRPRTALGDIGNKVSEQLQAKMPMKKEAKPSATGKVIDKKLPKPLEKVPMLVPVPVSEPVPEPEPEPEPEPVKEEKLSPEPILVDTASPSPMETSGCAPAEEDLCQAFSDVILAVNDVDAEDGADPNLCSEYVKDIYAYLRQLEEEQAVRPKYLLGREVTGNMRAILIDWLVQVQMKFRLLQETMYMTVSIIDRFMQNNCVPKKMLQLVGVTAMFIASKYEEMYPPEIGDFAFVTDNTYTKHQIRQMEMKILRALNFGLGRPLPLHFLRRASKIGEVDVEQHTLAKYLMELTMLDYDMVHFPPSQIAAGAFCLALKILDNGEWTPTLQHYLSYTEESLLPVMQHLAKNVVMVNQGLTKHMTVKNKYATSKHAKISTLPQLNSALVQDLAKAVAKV

CC(C)N1CCN(c2ccc(Nc3ncc4cc5n(c4n3)C3(CCCCC3)CNC5=O)nc2)CC1.Cl.Cl [G1T38, 2′-((5-(4-isopropylpiperazin-1-yl)pyridin-2-yl)amino)-7′, 8′dihydro-6′Hspiro[cyclohexane1,9′ pyrazino[1′,2′:1,5]pyrrolo[2,3-d]pyrimidin]-6′-one di-hydrochloride]
myeloid progenitor proliferation compared to vehicle [1]: no differences | Kp (in vivo [2]; C57BL/6, mouse): 17 | Kp at 24 h (in vivo [2]; C57BL/6, mouse): > 100 | concentration at 48 h (in vivo [2]; C57BL/6, mouse): ~65 ng/mL | drug in the plasma (in vivo [2]; mouse): no drug was detectable | concentration at 24 h (in vivo [3]): ~22 nM | findings on oral administration [4]: reduction of bone marrow cellularity and lymphocyte depletion | decrease of phosphorylated RB relative to the control ([5]; 1 hour post-treatment): 30% | decrease of phosphorylated RB relative to the control ([5]; 24 hours post-treatment): 98% | phosphorylation of RB, of control levels ([5]; 48 hours post-treatment): approximately 31% | IC50 (CDK6/Cyclin D3): 2 nM | IC50 (CDK2/Cyclin A): 1500 nM | IC50 (CDK7/Cyclin H/ Mat1): 2400 nM | IC50 (CDK2/Cyclin E): 3600 nM | Kd (PRKD3): 5 nM | Kd (TTK): 4.2 nM | Kd (PRKD2): 10 nM | Kd (NEK10): 0.18 nM | Kd (SNARK): 0.69 nM | Kd (SLK): 11 nM | Kd (FLT3 (D835V)): 6.5 nM | Kd (CDK4/ CyclinD1): 0.15 nM | Kd (ULK2): 5.5 nM | Kd (CDK4/ CyclinD3): 0.05 nM | Mean Accumulation Ratio (AUC0-24hr Day 28 ÷ Day 1) ([6]; 1 mg/kg): 1.08 | Mean Accumulation Ratio (AUC0-24hr Day 28 ÷ Day 1) ([6]; 2.5 mg/kg): 1.3 | Mean Accumulation Ratio (AUC0-24hr Day 28 ÷ Day 1) ([6]; 5 mg/kg): 1.14 | cellular EC50 lower than palbociclib [7]: 2-3 fold | tumor growth inhibition (TGI) (ER+ MCF7 xenograft; 10 mg/kg once daily oral): approximately 12% | tumor response, combination with fulvestrant (ER+ MCF7 xenograft; 50 mg/kg G1T38 + 5 mg fulvestrant, 28 days): near complete, sustained tumor regression | tumor response, combination with tamoxifen (ER+ MCF7 xenograft; 50 mg/kg G1T38 + 20 mg/kg tamoxifen, 28 days): near complete, sustained tumor regression | efficacy compared with palbociclib (ER+ MCF7 xenograft; 50 mg/kg daily oral, 28 days): significantly more efficacious than palbociclib | tumor growth inhibition (TGI) (ER+ MCF7 xenograft; 50 mg/kg once daily oral): ~74% | time to tumor regression (ER+ MCF7 xenograft; 100 mg/kg daily oral): ≤ 10 days | tumor growth inhibition (TGI) (ER+ MCF7 xenograft; 100 mg/kg once daily oral): ~90% | efficacy, combination with GDC0941 (ER+ MCF7 xenograft; G1T38 25 or 50 mg/kg + GDC0941 100 mg/kg): greater efficacy than any of the treatments alone | tumor response, combination with GW5638 (ER+ MCF7 xenograft; G1T38 25 or 50 mg/kg + GW5638 25 mg/kg): sustained tumor regression | TGI as single agents (GDC0941 study) (ER+ MCF7 xenograft; G1T38 25 or 50 mg/kg alone, GDC0941 100 mg/kg alone): modest TGI | TGI as single agents (GW5638 study) (ER+ MCF7 xenograft; G1T38 25 or 50 mg/kg alone, GW5638 25 mg/kg alone): modest TGI | IC50 (CDK1/Cyclin B1): 2400 nM
